Assay: Solubility and stability of 20% and 25% lauric acid in solvents and solvent mixtures

With Glycereth 2-Cocoate the “Solubility of 20% Lauric Acid” value (20% lauric acid in the named solvent) was “Not Soluble” and the “Solubility of 25% Lauric Acid” value (25% lauric acid in the named solvent) was “Not Soluble”.
